{"source": "paper PMC10531095", "about": "“Photonics of Some Monomethine Cyanine Dyes in Solutions and in Complexes with Biomolecules” (International Journal of Molecular Sciences, 2023)", "origin": "cited, not measured here", "system": "ssDNA", "parameters": "method as in PMID 15249599", "conditions": "ssDNA vs. dsDNA ref 62; cited from earlier work", "data": [{"compound": "CCCN(CCCN(C)C)c1cc(/C=C2/Sc3ccccc3N2C)c2ccccc2[n+]1-c1ccccc1", "note": "[SYBR Green I]", "values": [{"measurement": "fluorescence increase with ssDNA, times lower than with dsDNA", "value": "about 11 times"}]}]}
